Columns and labels:
Nt-hMLKL (2–154) = target: T1, Nt-hMLKL (2–154) (Homo sapiens, UniProt Q8NB16); assay: SPR binding to Nt-hMLKL; conditions: for Kd: SPR, CM5 chip, 25 °C
T1 construct: Nt-hMLKL (2–154), Nt-mMLKL (1–180), and Ct-hMLKL (183–471) were generated using the pBT7-N-His vector; His (N); made in house; host or cells: E. coli BL21
T1 sequence (Q8NB16 2-154): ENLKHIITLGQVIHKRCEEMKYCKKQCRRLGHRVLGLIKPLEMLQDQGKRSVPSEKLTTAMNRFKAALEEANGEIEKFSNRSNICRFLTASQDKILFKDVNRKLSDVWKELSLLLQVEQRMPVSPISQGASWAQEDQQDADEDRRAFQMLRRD
Source text: The hMLKL plasmid (RC213152, OriGene, Rockville, MD, USA), and recombinant Wt-hMLKL (ab241453, Abcam) and Wt-mMLKL (MBS1379843, MyBioSource, San Diego, CA, USA) proteins were purchased. Nt-hMLKL (2–154), Nt-mMLKL (1–180), and Ct-hMLKL (183–471) were generated using the pBT7-N-His vector. Nt-hMLKL^C86A, Nt-hMLKL^F148A, -hMLKL^C86A/L89A/D94A, and Nt-hMLKL^R145A/R146A/F148A/M150A were generated using the Site-directed Mutagenesis Kit (EZ004S, Enzynomics, S. Korea). These constructs were subcloned into pBT7-N-His and pET-15b plasmid vectors. E. coli BL21 cells transformed with the cloned expression vectors were cultured in LB medium and supplemented with 100 μg/mL ampicillin until an OD at 600 nm of 0.5–0.6 was reached. The cultures were induced by 1 mM IPTG (367-93-1, Sigma-Aldrich). The cells were lysed and centrifuged. The clear supernatants were subjected to Ni-NTA affinity chromatography (175018169, QIAGEN, Hilden, Germany). Plasmids encoding mMLKL (1–464)–gyrase fusion constructs were kindly provided by Prof. James Murphy (Cell Signalling and Cell Death Division, The Walter and Eliza Hall Institute of Medical Research, Parkville, Victoria 3052, Australia).
The interactions of Wt-hMLKL, Wt-mMLKL, Nt-mMLKL, Nt, and Ct-hMLKL proteins with Re-APO or Ox-APO were detected through SPR analysis using Biacore™ T200 (Cytiva, Marlborough, MA, USA). Each MLKL protein was immobilized on a CM5 sensor chip. To derive the Rligand values, coupling processes were performed based on the molecular weights of the MLKL protein (MW ligand) and Re-APO or Ox-APO (MW analyte). Re-APO or Ox-APO was injected into an HBS buffer (10 mM HEPES, 150 mM NaCl, 3.4 mM EDTA, and 0.005% Tween 20, pH 7.4) at 25 °C (10 μL/min flow rate). Sensorgrams were recorded and analyzed in real-time using the control software in the BIAcore T200 system. All data were analyzed using the BIA evaluation software (Cytiva).

p-MLKL oligomer = assay: MLKL oligomerization Western blot (non-reducing/reducing) in THP-1 cells; format: cell-based, human; conditions: THP-1, TBZ, 8 h; for tetramerization and octamerization of p-MLKL: non-reducing conditions; for phosphorylation levels of RIP1, RIP3 and MLKL: reducing conditions
Description: (§1) Fig. 2 Effect of redox-sensitive APO on MLKL oligomerization. A Chemical structure of APO. APO undergoes auto-oxidation to form the oxidized form (Ox-APO), while the addition of DTT preserves the reduced form (Re-APO). The red highlights indicate the sites where APO loses hydrogen and electrons during the oxidation process. B Real-time 1D ^1H NMR spectra showing the degree of oxidation of APO. APO was dissolved from its powdered form in DPBS and incubated at 25 °C for 36 h. Real-time 1D ^1H NMR spectra were measured at a 2 h intervals after filtration through a 0.2 μm syringe filter to remove precipitates. […] C MLKL oligomerization is inhibited by APO. THP-1 cells were treated with TBZ and Re-APO or Ox-APO for 8 h. Western blot analysis of WCLs was performed under non-reducing and reducing conditions using the indicated antibodies. Percentage changes of p-MLKL oligomer band relative to GAPDH were shown. The p value for MLKL oligomer band intensity was calculated based on the average intensity of the tetramer and octamer bands. Octa octamer, Tetra tetramer, Mono monomer. Mean ± SEM (n = 3). **p < 0.001, ns not significant, one-way ANOVA. D THP-1 cells were treated with TBZ and Ox-APO or Re-APO for 8 h and then stained with DAPI and MLKL for confocal microscopy. In the intensity graph, green indicates MLKL. The signal intensity of MLKL fluorescence from the plasma membrane to the cytosol was measured using FluoView FV1000 software. Mean ± SEM (n > 100). **p < 0.01, ***p < 0.001, one-way ANOVA. E J774A.1 mouse monocytic cells were treated with TBZ and 20 μM Re-APO or Ox-APO for 8 h. Western blot analysis of WCLs was performed under non-reducing and reducing conditions using the indicated antibodies.
(§2) The cells were harvested and lysed in 1× RIPA buffer (R4100-010, GenDEPOT, Katy, TX, USA) containing protease (P3100-001, GenDEPOT) and phosphatase (1862495, Thermo Fisher Scientific) inhibitors. WCLs were then centrifuged at 20,000×g for 30 min at 4 °C and subjected to non-reducing or reducing 8–12% SDS-PAGE gel electrophoresis. The membrane was blocked with 5% non-fat milk in TBS and probed with antibodies. Antibodies to hMLKL (14993S), mMLKL (97705S), phospho-hMLKL (Ser358) (91689S), phospho-mMLKL (Ser345) (37333S), phospho-hRIP1 (Ser166) (65746S), mRIP1 (3493S), phospho-mRIP1 (Ser321) (38662S), phospho-hRIP3 (Ser227) (93654), mRIP3 (95702S), p-mRIP3 (Thr231/Ser232) (91702S), and LDH (2012S) (Cell Signaling Technology, Danvers, MA, USA), and GAPDH (LF-PA0018, Abfrontier, S. Korea), hRIP1 (ab72139, Abcam, Cambridge, UK), hRIP3 (sc-135170, Santa Cruz Biotechnology, Dallas, TX, USA), HMGB1 (ab78923, Abcam), and LAMP1 (ab24170, Abcam) antibodies were used.

mouse MLKL (mMLKL) = assay: MLKL oligomerization Western blot in J774A.1 cells; format: cell-based; conditions: J774A.1, TBZ, 20 μM, 8 h
Description: as §1, §2

Compound | Kd (Nt-hMLKL (2–154)) [µM] | tetramerization and octamerization of p-MLKL (p-MLKL oligomer) | phosphorylation levels of RIP1, RIP3 and MLKL (p-MLKL oligomer) | formation of mMLKL tetramers and octamers (mouse MLKL (mMLKL)) | phosphorylation of mRIP1, mRIP3 and mMLKL (mouse MLKL (mMLKL)) | fold difference of binding versus Re-APO (Nt-hMLKL (2–154); from KD values) [fold]
CN1CCc2cccc3c2C1Cc1ccc(O)c(O)c1-3 (centres unmarked) [Re-APO] | 1140 | less effective than Ox-APO | little effect | strongly prevented | little effect | –
CN1CCc2cccc3c4c(cc1c23)C=CC(=O)C4=O [Ox-APO] | 1.31 | strongly inhibited | little effect | strongly prevented | little effect | ~1000

— article PMC12518639, “Apomorphine is a novel necroptosis inhibitor targeting mixed lineage kinase domain-like protein oligomerization” (Cell Death Discovery, 2025)
